Experiment [1] concerns the target T1, Recombinant human LTC4 synthase (Homo sapiens, UniProt Q16873).
T1 construct: made in house; host or cells: Pichia pastoris ('Piccia pastoralis' [sic])
T1 sequence (Q16873 1-150): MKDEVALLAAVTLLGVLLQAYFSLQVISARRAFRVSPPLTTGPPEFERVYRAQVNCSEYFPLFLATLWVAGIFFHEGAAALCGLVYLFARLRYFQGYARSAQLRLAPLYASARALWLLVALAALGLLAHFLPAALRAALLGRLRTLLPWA
As to the kind of experiment: In vitro assay Method A: LTC4 synthase, LTA4 methyl ester to LTC4 methyl ester, HPLC. It is filed as biochemical. To be noted: total concentration of title compound 10 μM, read-out: % inh. of LTC4 synthase. The method, then:
In the assay, LTC4 synthase catalyses the reaction where the substrate LTA4 methyl ester is converted to the corresponding LTC4 methyl ester. Recombinant human LTC4 synthase is expressed in Piccia pastoralis and the purified enzyme is dissolved in 25 mM Tris-buffer pH 7.8 and stored at −20° C. The assay is performed in phosphate buffered saline (PBS) pH 7.4, supplemented with 5 mM glutathione (GSH). The reaction is terminated by addition of MeCN/MeOH/acetic acid (50/50/1). The assay is performed at rt in 96-well plates. Analysis of the formed LTC4 methyl ester is performed with reversed phase HPLC (Waters 2795 utilizing an Onyx Monolithic C18 column). The mobile phase consists of MeCN/MeOH/H2O (32.5/30/37.5) with 1% acetic acid, pH adjusted with NH3 to 5.6, and absorbance measured at 280 nm with a Waters 2487 UV-detector.
The following is added chronologically to each well: • 1. 50 μL assay buffer, PBS with 5 mM GSH. • 2. 0.5 μL inhibitor in DMSO. • 3. 2 μL LTC4 synthase in PBS. The total protein concentration in this solution is 0.025 mg/mL. Incubation of the plate at rt for 10 min. • 4. 1-1.5 μL LTA4 methyl ester (final conc. 10 μM). Incubation of the plate at rt for 1 min. • 5. 50 μL stop solution. 80 μL of the incubation mixture is analysed with HPLC.

In experiment [2] the test system is cysteinyl leukotrienes concentration in the peritoneal lavage. As to the kind of experiment: Mouse peritoneal inflammation model (zymosan ip), cysteinyl leukotrienes in peritoneal lavage by EIA. It is filed as in vivo, Male BALB/c mice. The following applies: 0.5 h, 5 min before zymosan, lavage 30 min after zymosan, read-out: %-inhibition of cysteinyl leukotrienes concentration vs vehicle treated mice; for inhibition in vivo at 3 mg/kg: 3 mg/kg ip; for inhibition in vivo at 10 mg/kg: 10 mg/kg ip. The procedure: The in vivo efficacy of leukotriene biosynthesis inhibitors was assed by using a model of peritoneal inflammation. Male BALB/c mice (weighing 20-25 grams) received an intraperitoneal injection (ip) of 0.5 ml zymosan dissolved in phosphate buffer saline (PBS) (pH 7.5, 1 mg/mL). 5 Minutes before the zymosan injection compounds (1-10 mg/kg) or vehicle were administered ip (10 mL/kg). 30 min after the zymosan injection the mice were anaesthetized and the peritoneal cavity was flushed with 4 mL PBS. The peritoneal lavage was centrifuged at 6000 rcf for 5 minutes and the cysteinyl leukotrienes concentration in the supernatant was determined by EIA. The cysteinyl leukotrienes concentration in the peritoneal lavage from compound treated mice was compared to vehicle treated mice and the % inhibition was calculated.

Experiment [3] concerns the target T1, Recombinant human LTC4 synthase. As to the kind of experiment: In vitro assay Method B: LTC4 synthase, LTA4 to LTC4, HTRF detection. The following applies: total concentration of title compound 10 μM, read-out: % inh. of LTC4 synthase. The class given is biochemical. The procedure:
In the assay, LTC4 synthase catalyses the reaction where the substrate LTA4 is converted to LTC4. Recombinant human LTC4 synthase is expressed in Piccia pastoralis and the purified enzyme is dissolved in 25 mM Tris-buffer pH 7.8 and stored at −20° C. The assay is performed in phosphate buffered saline (PBS) pH 7.4, supplemented with 5 mM glutathione (GSH). The assay is performed at rt in 384-well plates. Analysis of the formed LTC4 is performed using costume made homogenous time-resolved fluorescence (HTRF) detection (Cisbio).
The following is added chronologically to each well: • 1. 50 μL assay buffer, PBS with 5 mM GSH. • 2. 0.5 μL inhibitor in DMSO. • 3. 2 μl LTC4 synthase in PBS. The total protein concentration in this solution is 0.025 mg/ml. Incubation of the plate at rt for 10 min. • 4. 1-1.5 μL LTA4 (final conc. 2.5 μM). Incubation of the plate at rt for 1 min. 10 μL of the incubation mixture is analysed using HTRF detection.
Background: Time-resolved FRET reads energy transfer from a long-lived donor to a nearby acceptor.

Molecules are shown by their SMILES.

As to `CC(C)Oc1ccc(Oc2ccc3c(c2)c(C(=O)O)c(CC(=O)O)n3-c2ccc(OCc3ccc4ccccc4n3)cc2)cc1` [1:10, 2-Carboxymethyl-1-5-(4-isopropoxyphenoxy)-[4-(2-quinolinylmethoxy)-phenyl]indole-3-carboxylic acid], the inhibition at 10 µM in experiment [1] was 98%.

Turning to `CC(C)Oc1ccc(Oc2ccc3c(c2)c(C(=O)O)c(CC(=O)O)n3-c2ccc(OCc3ccccn3)cc2)cc1` [Example 1:9, 2-Carboxymethyl-1-5-(4-isopropoxyphenoxy)-[4-(2-pyridinylmethoxy)-phenyl]indole-3-carboxylic acid], the inhibition in vivo at 3 mg/kg in experiment [2] was 97%. Moreover, in experiment [3], the inhibition at 10 µM stood at 98%.

On to `O=C(O)Cc1c(C(=O)O)c2cc(Oc3ccc(OC(F)(F)F)cc3)ccc2n1-c1ccc(OCc2ccccc2)cc1` [Example 2:1, 1-(4-Benzyloxyphenyl)-2-carboxymethyl-5-(4-trifluoromethoxyphenoxy)indole-3-carboxylic acid], for which the inhibition at 10 µM in experiment [1] was 89%.

Regarding `CC(C)Oc1ccc(Oc2ccc3c(c2)c(C(=O)O)c(CC(=O)O)n3-c2ccc(Oc3ccc(Cl)cc3)cc2)cc1` [Example 3:3, 2-Carboxymethyl-1-[4-(4-chlorophenoxy)phenyl]-5-(4-isopropoxy-phenoxy)indole-3-carboxylic acid], the inhibition in vivo at 10 mg/kg in experiment [2] was 100%. Moreover, the inhibition at 10 µM in experiment [3] turned out to be 96%.

As for `CC(C)Oc1ccc(Oc2ccc3c(c2)c(C(=O)O)c(CC(=O)O)n3-c2ccc(OC3CCCC3)cc2)cc1` [Example 4:1, 2-Carboxymethyl-1-(4-cyclopentyloxyphenyl)-5-(4-isopropoxyphenoxy)-indole-3-carboxylic acid], in experiment [2], the inhibition in vivo at 10 mg/kg is 96%. Moreover, the inhibition at 10 µM in experiment [3] was found to be 98%.

Turning to `O=C(O)Cc1c(C(=O)O)c2cc(Oc3ccc(OC(F)(F)F)cc3)ccc2n1-c1ccc(OC2CCCCC2)cc1` [Example 4:5, 2-Carboxymethyl-1-(4-cyclohexyloxyphenyl)-5-(4-trifluoromethoxyphenoxy)indole-3-carboxylic acid], the inhibition in vivo at 3 mg/kg in experiment [2] was found to be 97%. Further, in experiment [3], the inhibition at 10 µM was 99%.

Turning to `CCCCCCCCOc1ccc(-n2c(CC(=O)O)c(C(=O)O)c3cc(Oc4ccc(OC(C)C)cc4)ccc32)cc1` [Example 5:2, 2-Carboxymethyl-1-(4-octyloxyphenyl)-5-(4-isopropoxyphenoxy)indole-3-carboxylic acid], the inhibition in vivo at 3 mg/kg in experiment [2] stood at 94%. The inhibition at 10 µM in experiment [3] was 97%.
